The values below come from paper PMC3004914, “Classification of Drugs Based on Properties of Sodium Channel Inhibition: A Comparative Automated Patch-Clamp Study” (PLoS ONE, 2010).

“And” between values parts separate entries of the source, which are not always exact repeats. Equal entries are not always repeated. Where two headings read alike, the source gives them in different places.

Data set [1] addresses T1, rNav1.2 sodium channels (HEK-293 cells) (Rattus norvegicus, UniProt P04775). Briefly: 5 Hz train protocol, QPatch automated patch-clamp.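 As to UD (use-dependence of the inhibition): UD = (A3/A4)/(A1/A2) as ratios of peak amplitudes from Figure 1A.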 Type of data set: cell-based. Particulars: for Rev (reversibility): Rev = A5/A1 after washout. A digest of the protocol: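 rNav1.2 in stable HEK-293 cells, QPatch whole-cell; 5 Hz trains of five pulses from −90 to −10 mV, repeated every 20 s; 10 control trains, 10 with drug, then washout. Inhibition of peak current at a single concentration gave IC50; reversibility, use-dependence and τoff also derived.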
(The patch-clamp technique gives a direct electrical read-out from membranes.)

The target of data set [2] is T1, rNav1.2 sodium channels (HEK-293 cells). Briefly: steady-state inactivation protocol (availability curves), QPatch automated patch-clamp. Type of data set: cell-based. A digest of the protocol: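 HEK-293 cells stably expressing rat Nav1.2, recorded by automated patch clamp in extracellular solution pH 7.3 containing CdCl2 and TEA. Availability measured with 400 ms pre-pulses from −150 to −30 mV, then a 10 ms test pulse to −10 mV. Kr, Ki (four-state model) and Kr/Ki state-dependence derived from inhibition and ΔV1/2.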

For data set [3], the system named is sodium channels. Particulars: cited from earlier work.
In data set [4] the target is sodium channels. As to conditions: cited from earlier work; for Ki: read-out: Ki−Lit; for Kd: read-out: Kr−Lit.
For data set [5] the following is noted: human plasma, cited from earlier work.
Where [6] appears, read: 300 μM, 3 s assigned where too short to be resolved.
Setting [7] is: HEK293, read-out: IC50, calculated from Inh at single concentration 100 μM, −90 mV, 5 Hz train.
Where [8] appears, read: HEK293, read-out: IC50, calculated from Inh at single concentration 300 μM, −90 mV, 5 Hz train.
[9] abbreviates: HEK293, read-out: Inh (inhibited fraction).
The mark [10] stands for this setting: HEK293, read-out: Inh (inhibited fraction) at holding potential −150 mV.
Where [11] appears, read: arithmetic mean, 300 µM, read-out: Ki-Kapp arith.
[12] abbreviates: arithmetic mean, 300 µM, read-out: Ki-ΔV1/2 arith.
The mark [13] stands for this setting: arithmetic mean, 300 µM, read-out: Kr arith.
[14] abbreviates: geometric mean, from Inh at −150 mV, 300 µM, read-out: Kr (resting state affinity).
[15] abbreviates: geometric mean, from apparent affinity, 300 µM, read-out: Ki−Kapp (inactivated state affinity).
Where [16] appears, read: geometric mean, from shift of availability curve, 300 µM, read-out: Ki−ΔV1/2 (inactivated state affinity).
[17] abbreviates: 100 μM, 500 s assigned where irreversible.
[18] abbreviates: arithmetic mean, 100 µM, read-out: Ki-Kapp arith.
Where [19] appears, read: arithmetic mean, 100 µM, read-out: Ki-ΔV1/2 arith.
Setting [20] is: arithmetic mean, 100 µM, read-out: Kr arith.
[21] abbreviates: geometric mean, from Inh at −150 mV, 100 µM, read-out: Kr (resting state affinity).
[22] abbreviates: geometric mean, from apparent affinity, 100 µM, read-out: Ki−Kapp (inactivated state affinity).
Where [23] appears, read: geometric mean, from shift of availability curve, 100 µM, read-out: Ki−ΔV1/2 (inactivated state affinity).

T1 sequence (P04775 whole entry): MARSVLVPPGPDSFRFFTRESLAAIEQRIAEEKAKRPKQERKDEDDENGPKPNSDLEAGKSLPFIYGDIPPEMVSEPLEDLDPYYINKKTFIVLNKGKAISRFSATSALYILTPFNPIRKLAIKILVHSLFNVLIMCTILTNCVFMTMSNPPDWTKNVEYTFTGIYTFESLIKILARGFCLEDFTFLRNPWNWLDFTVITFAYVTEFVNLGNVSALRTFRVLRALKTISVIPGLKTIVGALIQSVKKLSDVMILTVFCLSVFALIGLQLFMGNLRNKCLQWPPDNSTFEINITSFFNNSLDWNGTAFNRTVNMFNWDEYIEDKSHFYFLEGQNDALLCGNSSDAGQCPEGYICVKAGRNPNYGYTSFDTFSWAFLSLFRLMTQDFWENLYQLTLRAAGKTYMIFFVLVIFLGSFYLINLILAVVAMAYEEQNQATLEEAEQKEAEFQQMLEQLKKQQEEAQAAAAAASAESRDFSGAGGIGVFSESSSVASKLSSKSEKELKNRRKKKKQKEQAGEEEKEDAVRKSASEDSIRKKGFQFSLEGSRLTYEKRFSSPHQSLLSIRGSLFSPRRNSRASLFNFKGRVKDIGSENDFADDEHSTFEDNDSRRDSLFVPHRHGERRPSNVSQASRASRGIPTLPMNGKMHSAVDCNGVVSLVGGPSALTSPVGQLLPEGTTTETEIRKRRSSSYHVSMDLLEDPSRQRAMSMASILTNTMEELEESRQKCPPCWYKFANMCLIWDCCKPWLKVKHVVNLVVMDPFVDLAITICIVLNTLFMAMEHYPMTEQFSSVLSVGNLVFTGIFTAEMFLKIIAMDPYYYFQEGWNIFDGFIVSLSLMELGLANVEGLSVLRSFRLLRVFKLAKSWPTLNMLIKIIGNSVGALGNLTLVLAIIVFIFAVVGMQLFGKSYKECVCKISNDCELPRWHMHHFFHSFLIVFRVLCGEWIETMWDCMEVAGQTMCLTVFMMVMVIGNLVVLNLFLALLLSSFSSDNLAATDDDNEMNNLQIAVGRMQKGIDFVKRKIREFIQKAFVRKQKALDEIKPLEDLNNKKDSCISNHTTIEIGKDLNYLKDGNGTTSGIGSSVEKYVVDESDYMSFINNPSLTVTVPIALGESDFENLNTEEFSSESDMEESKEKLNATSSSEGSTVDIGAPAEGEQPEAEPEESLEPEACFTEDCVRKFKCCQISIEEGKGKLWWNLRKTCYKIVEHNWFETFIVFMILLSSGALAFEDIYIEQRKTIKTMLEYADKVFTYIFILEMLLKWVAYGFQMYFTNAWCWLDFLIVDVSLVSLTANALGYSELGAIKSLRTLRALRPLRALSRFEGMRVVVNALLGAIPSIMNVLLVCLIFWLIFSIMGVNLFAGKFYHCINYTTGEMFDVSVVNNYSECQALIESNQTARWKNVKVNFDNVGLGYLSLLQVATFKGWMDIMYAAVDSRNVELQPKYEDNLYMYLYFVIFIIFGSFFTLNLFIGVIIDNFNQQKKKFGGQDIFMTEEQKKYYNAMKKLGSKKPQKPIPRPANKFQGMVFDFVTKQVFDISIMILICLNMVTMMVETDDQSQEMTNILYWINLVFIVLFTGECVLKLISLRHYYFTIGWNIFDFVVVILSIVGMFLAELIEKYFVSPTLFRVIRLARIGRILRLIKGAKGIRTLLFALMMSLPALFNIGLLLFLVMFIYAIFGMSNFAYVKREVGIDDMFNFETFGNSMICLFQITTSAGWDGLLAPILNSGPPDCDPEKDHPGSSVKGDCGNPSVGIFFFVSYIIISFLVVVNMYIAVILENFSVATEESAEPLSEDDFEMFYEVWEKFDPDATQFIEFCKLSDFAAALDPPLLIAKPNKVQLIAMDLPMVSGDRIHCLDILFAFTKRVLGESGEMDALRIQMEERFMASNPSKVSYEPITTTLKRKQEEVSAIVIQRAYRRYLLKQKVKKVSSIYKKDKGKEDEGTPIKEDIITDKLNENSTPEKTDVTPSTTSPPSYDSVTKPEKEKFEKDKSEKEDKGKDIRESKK

In data set [1] (300 μM), `CCN(CC)CC(=O)Nc1c(C)cccc1C` [LID, Lidocaine] yielded a τoff of 6 s. For the same molecule, in data set [1] (setting [6]), the τon was determined as 3 s. In data set [1] (300 μM, 5 Hz train), the “UD (use-dependence of the inhibition)” value was 1.14. In addition, the “Rev (reversibility)” value in data set [1] (300 μM) is listed as 0.95. For the same molecule, the potency estimated from few doses in data set [1] (setting [7]) was 1050 µM; in data set [1] (setting [8]), 977 µM; in data set [1] (HEK293, read-out: IC50, calculated from Inh at single concentration 1000 µM), 1270 µM; in data set [1] (read-out: IC50, calculated from Inh at single concentration 300 μM, −90 mV, 5 Hz train), 1080 µM. In addition, the inhibition at 100 µM in data set [1] (setting [9]) amounted to 9%. In addition, the inhibition at 300 µM in data set [1] (setting [9]) came out at 23%; in data set [2] (setting [10]), 9%. Also, the inhibition at 1000 µM in data set [1] (setting [9]) was 44%. Further, in data set [1] (in words), the potency result is given as “among the least potent SCIs”. Moreover, the Ki in data set [2] (setting [11]) was determined as 70.3 µM; in data set [2] (setting [12]), 114 µM; in data set [2] (setting [15]) it was 65.7 µM; in data set [2] (setting [16]), 89.6 µM. In addition, the figures for the Kd in data set [2] (setting [13]) and in data set [2] (setting [14]) were 3340 µM and 3190 µM, respectively. The “criterion of at least 60% inhibition at 10 µM concentration” value with sodium channels [3] was “failed to fulfill this criteria”.

Regarding `Nc1nnc(-c2cccc(Cl)c2Cl)c(N)n1` [LTG, Lamotrigine], the Ki on sodium channels [4] (averaged literature data) is 15.1 µM; in data set [2] (setting [11]), 40.4 µM; in data set [2] (setting [12]) it was 37.3 µM; in data set [2] (setting [15]) it was 36.7 µM; in data set [2] (setting [16]) it was 31.3 µM. In addition, the Kd on sodium channels [4] (averaged literature data) was 1560 µM; in data set [2] (setting [13]), 2330 µM; in data set [2] (setting [14]), 2270 µM. Also, the plasma conc. in data set [5] (as printed in each cell) is 2.5 [44] µg/ml; in data set [5] (as printed in the µg/ml cell), 9.762 µM. Further, the τoff in data set [1] (300 μM) is 18.1 s. Moreover, the τon in data set [1] (setting [6]) turned out to be 8.19 s. Further, in data set [1] (300 μM, 5 Hz train), the “UD (use-dependence of the inhibition)” value amounted to 0.97. Also, the “Rev (reversibility)” value in data set [1] (300 μM) is recorded as 0.85. Also, the potency estimated from few doses in data set [1] (setting [8]) is 905 µM. In addition, the inhibition at 300 µM amounted to 25% in data set [1] (setting [9]) and 12% in data set [2] (setting [10]). For the same molecule, the “ΔV1/2 (shift of availability curve)” value in data set [2] (300 μM) is −10.3 mV. The “criterion of at least 60% inhibition at 10 µM concentration” value in the data set on sodium channels [3] is “failed to fulfill this criteria”.

Take `C[Si](C)(Cc1ccc(F)cc1)CN1CCCCC1` [SIL, Silperisone]: the Ki on sodium channels [4] (averaged literature data) was 34.9 µM; in data set [2] (setting [18]), 7.08 µM; in data set [2] (setting [19]) it was 14.6 µM; in data set [2] (setting [22]), 6.7 µM; in data set [2] (setting [23]), 14 µM. Also, the Kd was 340 µM at sodium channels [4] (averaged literature data), 135 µM in data set [2] (setting [20]) and 133 µM in data set [2] (setting [21]). Moreover, the plasma conc. is 0.45 [56] µg/ml in data set [5] (as printed in each cell) and 1.484 µM in data set [5] (as printed in the µg/ml cell). The same molecule gave a τon in data set [1] (100 μM) of 4.1 s. The “UD (use-dependence of the inhibition)” value in data set [1] (100 μM, 5 Hz train) was found to be 1.16. This molecule came in with a τoff in data set [1] (setting [17]) of 15.21 s. For the same molecule, in data set [1] (100 μM), the “Rev (reversibility)” value turned out to be 0.8. Further, the “Inh (inhibited fraction)” value in data set [1] (100 μM, −90 mV holding potential, 5 Hz train) is 0.45. Besides, the potency estimated from few doses in data set [1] (calculated from Inh at single concentration 100 μM, −90 mV, 5 Hz train, read-out: IC50) was 121 µM. Further, the “Inh (inhibited fraction) at holding potential −150 mV” value in data set [2] (100 μM) is given as 0.43. Further, the “ΔV1/2 (shift of availability curve)” value in data set [2] (100 μM) is reported as −7.66 mV.

With `Cc1ccc(C(=O)C(C)CN2CCCCC2)cc1` (stereo not drawn) [TOL, Tolperisone], the Ki on sodium channels [4] (averaged literature data) was 5.07 µM; in data set [2] (setting [18]), 24.3 µM; in data set [2] (setting [19]), 43.2 µM; in data set [2] (setting [22]), 21 µM and 21.1 µM; in data set [2] (setting [23]), 30.9 µM. Moreover, the Kd on sodium channels [4] (averaged literature data) is 384 µM; in data set [2] (setting [20]), 399 µM; in data set [2] (setting [21]) it was 391 µM. The plasma conc. in data set [5] (as printed in each cell) is 0.43 [57] µg/ml; in data set [5] (as printed in the µg/ml cell) it was 1.508 µM. Besides, the τon in data set [1] (100 μM) came to 5.57 s. Also, in data set [1] (100 μM, 5 Hz train), the “UD (use-dependence of the inhibition)” value turned out to be 1.14. The τoff in data set [1] (setting [17]) worked out at 7.42 s. Besides, the “Rev (reversibility)” value in data set [1] (100 μM) stood at 0.95. In addition, the inhibition at 100 µM in data set [1] (HEK293, 100 μM, −90 mV holding potential, 5 Hz train, read-out: Inh (inhibited fraction)) is 23%; in data set [2] (HEK293, 100 µM, read-out: Inh (inhibited fraction) at holding potential −150 mV), 21%. In addition, in data set [1] (HEK293, calculated from Inh at single concentration 100 μM, −90 mV, 5 Hz train, read-out: IC50), the potency estimated from few doses was 336 µM. The “ΔV1/2 (shift of availability curve)” value in data set [2] (100 μM) was −6.47 mV.

Turning to `COc1ccc(C(CN(C)C)C2(O)CCCCC2)cc1` (stereo not drawn) [VFX, Venlafaxine], the Ki at sodium channels [4] (averaged literature data) is 0.64 µM; in data set [2] (Ki-Kapp arith, arithmetic mean, 100 µM) it was 72.8 µM; in data set [2] (Ki-ΔV1/2 arith, arithmetic mean, 100 µM) it was 75.8 µM; in data set [2] (Ki−Kapp (inactivated state affinity), geometric mean, from apparent affinity, 100 µM) it was 63.4 µM; in data set [2] (Ki−ΔV1/2 (inactivated state affinity), geometric mean, from shift of availability curve, 100 µM), 59.5 µM. Further, the Kd is 8 µM on sodium channels [4]; 889 µM in data set [2] (Kr (resting state affinity), geometric mean, from Inh at −150 mV, 100 µM); 1000 µM in data set [2] (Kr arith, arithmetic mean, 100 µM). The plasma conc. is 0.17 [44] µg/ml in data set [5] (as printed in each cell) and 0.532 µM in data set [5] (as printed in the µg/ml cell). This molecule also displayed a τon in data set [1] (100 μM) of 4.85 s. Also, in data set [1] (100 μM, 5 Hz train), the “UD (use-dependence of the inhibition)” value is listed as 1.05. For the same molecule, the τoff in data set [1] (setting [17]) came to 5.2 s. Moreover, the “Rev (reversibility)” value in data set [1] (100 μM) is recorded as 0.89. For the same molecule, in data set [1] (setting [7]), the potency estimated from few doses was 727 µM. Further, the inhibition at 100 µM came out at 12% in data set [1] (setting [9]) and 11% in data set [2] (setting [10]). Besides, the “ΔV1/2 (shift of availability curve)” value in data set [2] (100 μM) is listed as −4.66 mV.
